According to patent US11666541B2, “Systems and methods for feeding sugar alcohol to ruminants during periods of heat stress” (PURINA ANIMAL NUTRITION LLC, priority 2012, dated 2023):

Tests used:
Assay type in all cases: in vivo
[1] = tested on: dairy cattle in mid-lactation; assay: Example 3: feeding sorbitol at about 100 grams per day to dairy cattle in mid-lactation, with and without misters; details: for 3.5% FCM / Body Weight / Daily Milk Yield / Dry Matter Intake / ECM / Milk Fat / Milk Protein: about 100 g/day
Text: 64 dairy cattle were separated into four pens of 16 dairy cattle each pen was provided one of the four treatments described above in connection with Example 1. The treatment groups receiving sorbitol in the diet were provided 1 pound of premix per day during a ten week testing period. During the study, the temperature was between 70 degrees and 85 degrees during […] of study and was greater than 85 degrees during 25 percent of the study. […] [table] [table]

[2] = tested on: heat stressed transition dairy cattle; assay: Example 2: feeding sorbitol to heat stressed transition dairy cattle (about 150 g/d prior to calving, about 125 g/d after), with and without evaporative cooling
Text: In this example, the dairy cattle were blocked in the same manner as Example 1. During the study, the ambient temperature was between 70 degrees and 85 degrees during 62 percent of study and was greater than 85 degrees during 18 percent of the study.
After 30 days in milk, all postfresh cows were fed a common diet until 60 days post partum. The nutrient analysis of the total mixed rations for the control and sorbitol diets provided during the study are shown in Table 5C:
As provided in FIGS. 5A and 5B, sorbitol was provided in a base mix at a rate of 1.5 pounds per day for prefresh dairy cattle (e.g., for 28 days prior to calving) and at a rate of 1.25 pounds per day for post fresh dairy cattle (e.g., for 30 days post-calving).
From day 30 to day 60, all dairy cattle study groups received the same diet free of sorbitol (see Table 5).

[3] = tested on: heat stressed lactating dairy cattle in a post-peak phase of lactation; assay: Example 1: feeding about 100 grams of sorbitol per day to heat stressed lactating dairy cattle in post-peak phase, with and without evaporative cooling
Text: In the Examples below, statistical analysis was completed for parameters studied such as milk yield, energy corrected milk (ECM), fat corrected milk (FCM), and dry matter intake. A P value of 0.10 means that 10 times out of 100 the results can be explained by factors other than the feeding of sorbitol versus the lack of sorbitol feeding. Likewise, a P value of 0.75 means that 75 times out of 100, the difference in value between the control group and the sorbitol-fed group may be explained by factors other than the feeding of the increased rate(s) of supplemental feed versus the lower rate of feeding of the supplemental feed (e.g., 4 pounds per head per day). For purposes of comparing data in this document, P values of 0.15, or lower, are considered statistically significant. Thus, where a P value of 0.15 or less is returned for particular results, it is assumed that the differing results may be explained by the test regimen, i.e.: the feeding of the increased rate(s) of supplemental feed versus the lower rate of feeding of the supplemental feed (e.g., 4 pounds per head per day). […] In this example, 32 multiparous cows were blocked by production and days in milk into one of two diets, a control diet without sorbitol and a diet with sorbitol, and each treatment group was divided into two cooling treatments. The four treatment groups included 1) a control diet with fans and no mist; 2) a sorbitol-supplemented diet with fans and no mist; 3) a control diet with fans and mist; and 4) a sorbitol-supplemented diet with fans and mist. During the study, the ambient temperature was between 70 degrees and 85 degrees during 51 percent of study and was greater than 85 degrees during 13 percent of the study. Heat stress in the dairy cattle was observed through changes in performance as well as increased respiration rates. Dairy cattle performance and respiration rates for the dairy cattle not receiving mister cooling is compared to dairy cattle receiving mist treatment in Table 1. The sorbitol in the sorbitol-supplemented diets was processed as an extruded pellet and added to other grain concentrates prior to final addition and delivery to the ruminant. [table] [table]

[4] = sorbitol without mister treatment
[5] = day 0 to 30 postpartum, Misters
[6] = day 0 to 30 postpartum, No Misters
[7] = day 0 to 60 postpartum (sorbitol-free common diet from day 30), Misters
[8] = day 0 to 60 postpartum (sorbitol-free common diet from day 30), No Misters
[9] = about 100 g sorbitol/day, post-peak, pooled across cooling strategies and day

Which results are given for OC[C@@H](O)[C@@H](O)[C@H](O)[C@@H](O)CO [Sorbitol, sorbitol]?
3.5% FCM ([1]; Misters): 66.7 lbs/d; Body Weight ([1]; Misters): 1373 lbs; Daily Milk Yield ([1]; Misters): 73.7 lbs/d; Dry Matter Intake ([1]; Misters): 49.4 lbs/d; ECM ([1]; Misters): 68.1 lbs/d; Milk Fat ([1]; Misters): 2.92%; Milk Protein ([1]; Misters): 2.92%; 3.5% FCM ([1]; No Misters): 66.0 lbs/d; Body Weight ([1]; No Misters): 1393 lbs; Daily Milk Yield ([1]; No Misters): 71.9 lbs/d; Dry Matter Intake ([1]; No Misters): 51.2 lbs/d; ECM ([1]; No Misters): 67.3 lbs/d; Milk Fat ([1]; No Misters): 3.03%; Milk Protein ([1]; No Misters): 2.92%; increase in milk yield compared to the control group without mister treatment ([1]; sorbitol and mister treatment): about 3.5 pounds per day; increase in milk yield compared to the control group without mister treatment [1, 4]: about 1.7 pounds per day; Body Weight, post [2, 5]: 1259 lbs; DMI as % BW [2, 5]: 3.05%; Daily Milk Yield [2, 5]: 78.7 lbs/d; Dry Matter Intake [2, 5]: 37.8 lbs/d; ECM [2, 5]: 80.2 lbs/d; FCM [2, 5]: 80.7 lbs/d; Milk Fat [2, 5]: 3.53%; Milk Protein [2, 5]: 2.81%; Milk-to-Feed Ratio [2, 5]: 2.08; Body Weight, post [2, 6]: 1232 lbs; DMI as % BW [2, 6]: 3.03%; Daily Milk Yield [2, 6]: 74.4 lbs/d; Dry Matter Intake [2, 6]: 36.8 lbs/d; ECM [2, 6]: 75.2 lbs/d; FCM [2, 6]: 75.5 lbs/d; Milk Fat [2, 6]: 3.42%; Milk Protein [2, 6]: 2.81%; Milk-to-Feed Ratio [2, 6]: 2.05; increase in milk yield compared to the control group without mister treatment ([2]; day 0 to 30 postpartum, sorbitol and mister treatment): about 11.5 pounds per day; increase in milk yield compared to the control group without mister treatment ([2]; day 0 to 30 postpartum, sorbitol without mister treatment): about 7.2 pounds per day; Body Weight, post [2, 7]: 1261 lbs; DMI as % BW [2, 7]: 3.45%; Daily Milk Yield [2, 7]: 84.3 lbs/d; Dry Matter Intake [2, 7]: 42.9 lbs/d; ECM [2, 7]: 79.8 lbs/d; FCM [2, 7]: 80.4 lbs/d; Milk - to - Feed [2, 7]: 2.00; Milk Fat [2, 7]: 3.17%; Milk Protein [2, 7]: 2.66%; Milk - to - Feed ([2]; day 0 to 60 postpartum (sorbitol-free common diet from day 30), Misters, listed as sorbitol): 2.0; Body Weight, post [2, 8]: 1231 lbs; DMI as % BW [2, 8]: 3.32%; Daily Milk Yield [2, 8]: 81.2 lbs/d; Dry Matter Intake [2, 8]: 41.1 lbs/d; ECM [2, 8]: 77.3 lbs/d; FCM [2, 8]: 77.7 lbs/d; Milk - to - Feed [2, 8]: 1.97; Milk Fat [2, 8]: 3.12%; Milk Protein [2, 8]: 2.66%; increase in milk yield compared to the control group without mister treatment ([2]; day 0 to 60 postpartum, sorbitol and mister treatment): about 11.3 pounds per day; increase in milk yield compared to the control group without mister treatment ([2]; day 0 to 60 postpartum, sorbitol without mister treatment): about 8.2 pounds per day; beta hydroxy butyrate (BHBA) levels (FIG. 4) ([2]; transition phase, sorbitol groups vs control without misters): control group without mister treatment experienced a spike in BHBA levels compared to the sorbitol groups; DMI [3, 9]: 24.7 kg/day; Daily Milk [3, 9]: 39.4 kg/day; ECM [3, 9]: 37.2 kg/day; FCM [3, 9]: 36.8 kg/day; Fat [3, 9]: 1.23 kg/day; Fat, % [3, 9]: 3.16%; Milk to Feed [3, 9]: 1.60; Protein [3, 9]: 1.12 kg/day; Protein, % [3, 9]: 2.87%; Respiration rates [3, 9]: 63.0; performance: daily milk, ECM, FCM (FIG. 1) ([3]; sorbitol and mister treatment): best overall performance in comparison to all other groups studied; milk-to-feed ratio (FIG. 3) ([3]; sorbitol group with mister treatment): 1.64 kg of milk for every kg of dry matter consumed; milk-to-feed ratio (FIG. 3) ([3]; sorbitol group without mister treatment): 1.55 kg of milk for every kg of dry matter consumed; difference in ECM ([3]; sorbitol group without mister treatment vs control group with misters): 0.3 kg/day; FCM results vs control ([3]; sorbitol with and without mister treatment): performed better than the control group with mister treatment and significantly better than the control group without mister treatment; variation of dry matter intake between the two sorbitol groups ([3]; sorbitol with vs without misters): 0.4 kg/day; ECM results vs control [3, 4]: performed significantly better than the control group without sorbitol and mister treatment; performance: daily milk, ECM, FCM (FIG. 1) [3, 4]: performed better than the control group without misters in all performance areas; daily dry matter intake (FIG. 2) ([3]; the other groups (both sorbitol groups and control without misters) vs 28 for control with misters): 25 kg/day
